Experimental data from PubChem BioAssay (NCI).
“And” between values parts separate entries of the source, which are not always exact repeats. Identical values can stand only once.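 How tested: cells in 96-well plates exposed to compound for 48 hours at five concentrations. GI50 = concentration required for 50% inhibition of growth. TGI: total growth inhibition.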

Legend:
Test in all cases: DTP human tumour cell line panel, 48 h
A549 NSCLC = test system: A549 NSCLC
HS 578T breast = test system: HS 578T breast
KM12 colon = test system: KM12 colon
MCF7 breast = test system: MCF7 breast
MDA-MB-231 breast = test system: MDA-MB-231 breast
RXF 393 renal = test system: RXF 393 renal
SK-OV-3 ovarian = test system: SK-OV-3 ovarian
SW-620 colon = test system: SW-620 colon
UACC-62 melanoma = test system: UACC-62 melanoma
UO-31 renal = test system: UO-31 renal

| SMILES | TGI (A549 NSCLC) | TGI (HS 578T breast) | TGI (KM12 colon) | TGI (MCF7 breast) | TGI (MDA-MB-231 breast) | TGI (RXF 393 renal) | TGI (SK-OV-3 ovarian) | TGI (SW-620 colon) | TGI (UACC-62 melanoma) | TGI (UO-31 renal) | GI50 (A549 NSCLC) | GI50 (KM12 colon) | GI50 (RXF 393 renal) | GI50 (SK-OV-3 ovarian) | GI50 (SW-620 colon) | GI50 (UACC-62 melanoma) | GI50 (UO-31 renal) | GI50 (HS 578T breast) | GI50 (MCF7 breast) | GI50 (MDA-MB-231 breast) |
| --- | --- | --- | --- | --- | --- | --- | --- | --- | --- | --- | --- | --- | --- | --- | --- | --- | --- | --- | --- | --- |
| Cc1cc(Cl)ccc1NC(=O)/C(Cl)=C(/Cl)C(=O)O | > 100 µM | 61.6 µM | 82.8 µM | 50.5 µM | 47.8 µM | 36.3 µM | > 100 µM | 48.9 µM | 48.8 µM | > 100 µM |  |  |  |  |  |  |  |  |  |  |
| NC(=O)c1nnn(Cc2cc(Cl)c(C(=O)c3ccc(Cl)cc3)c(Cl)c2)c1N | > 9.09 µM and 37.1 µM | > 64.3 µM | > 9.09 µM and 35 µM | 32.9 µM | > 52.8 µM | > 9.09 µM and 39.3 µM | > 52.9 µM | > 9.09 µM and 50.1 µM | > 9.09 µM and 36.4 µM | > 9.09 µM and 42.1 µM | > 9.09 µM | > 9.09 µM | > 9.09 µM | > 9.09 µM | > 9.09 µM | > 9.09 µM | > 9.09 µM |  |  |  |
| CCCCCCCCCCCCOC1C(CNC(=O)C2OC3OC(C)(C)OC3C2NC(=O)CN2CCN(c3ccccn3)CC2)OC2OC(C)(C)OC21 (stereo unspecified) | 3.07 µM | 4.69 µM | 4.43 µM | 4.58 µM | 3.14 µM | 2.74 µM | 9.86 µM | 3.18 µM | 3.05 µM | 2.72 µM | 1.6 µM | 2.16 µM | 1.36 µM | 5.18 µM | 1.69 µM | 1.61 µM | 1.42 µM | 1.9 µM | 1.94 µM | 1.67 µM |
| CSC(=S)N/N=C/c1ccccc1 | > 100 µM | > 100 µM | > 100 µM | > 100 µM | > 100 µM | 76.9 µM | > 100 µM | > 100 µM | > 100 µM | > 100 µM |  |  |  |  |  |  |  |  |  |  |
| C=C1C(=O)O[C@H]2[C@H]1CC/C(C=Nc1ccc(C(F)(F)F)cc1N)=C\CC[C@@]1(C)O[C@@H]21 | 32.7 µM | 40.4 µM | 28.3 µM | 16 µM | 24.3 µM | 9.22 µM | 30 µM | 13.2 µM | 15.6 µM | 19.3 µM | 17.2 µM | 13.4 µM | 2.87 µM | 16.3 µM | 3.67 µM | 2.91 µM | 2.87 µM | 11.2 µM | 3.06 µM | 7.05 µM |
| COC1OCC(OS(=O)(=O)c2ccc(C)cc2)C(OC(=O)c2ccccc2)C1OC(=O)c1ccccc1 (stereo unspecified) | > 100 µM | 27.4 µM | > 100 µM | > 100 µM | > 100 µM | > 100 µM | > 100 µM | > 100 µM | > 100 µM | > 100 µM | 6.14 µM | 4.04 µM | 4.62 µM | 21.7 µM | 3.08 µM | 3.48 µM | > 100 µM | 1.89 µM | 3.01 µM | 7.02 µM |
| CCc1ccc(CCC(=O)Nc2ncc(Cc3cc(Cl)ccc3Cl)s2)o1 | > 50 µM | 5.96 µM | > 50 µM | > 50 µM | 15.6 µM | 6.87 µM | > 50 µM | > 50 µM | > 50 µM | 22.5 µM | 2.14 µM | 1.12 µM | 1.19 µM | 2.04 µM | 0.935 µM | 1.49 µM | 1.86 µM | 1.29 µM | 0.399 µM | 2.16 µM |
| CC1(C)Cc2cccc(OCC(O)CN3CCN(c4ccc(F)cc4)CC3)c2O1 (stereo unspecified) | > 50 µM | 31.3 µM | > 50 µM | 49.7 µM | 36 µM | 22.6 µM | > 50 µM | > 50 µM | > 50 µM | > 50 µM | 19.4 µM | 15.3 µM | 8.33 µM | 23.2 µM | 14.3 µM | 11.6 µM | 13.5 µM | 10.4 µM | 13.4 µM | 8.58 µM |
| O=C(N/N=C/c1coc2ccc(Cl)cc2c1=O)c1ccncc1 | > 100 µM | > 100 µM | > 100 µM | > 100 µM | > 100 µM | > 100 µM | > 100 µM | > 100 µM | > 100 µM | > 100 µM | 98.2 µM | 58.4 µM | 65.9 µM | > 100 µM | > 100 µM | 46.5 µM | 58.4 µM | 32.6 µM | 47.2 µM | 80.6 µM |
| CCOCCc1c(O)nc(SC)[nH]c1=O | > 100 µM | > 100 µM | > 100 µM | > 100 µM | > 100 µM | > 100 µM | > 100 µM | > 100 µM | > 100 µM | > 100 µM | > 100 µM | > 100 µM | > 100 µM | > 100 µM | > 100 µM | > 100 µM | > 100 µM | > 100 µM | > 100 µM | > 100 µM |
| O=C(O)c1cc(N/C=C2\C(=O)c3ccccc3OC2O)ccc1O (stereo unspecified) | > 150 µg/mL | 140 µg/mL | 51.6 µg/mL | 115 µg/mL | 78.9 µg/mL | 40.1 µg/mL | 75.1 µg/mL | 54.2 µg/mL | 62.8 µg/mL | 46.2 µg/mL | 53.7 µg/mL | 25.7 µg/mL | 18.5 µg/mL | 29.3 µg/mL | 23.4 µg/mL | 15.6 µg/mL | 10.1 µg/mL | 19.6 µg/mL | 24.1 µg/mL | 24.5 µg/mL |
| O=C(/C=C/C=C/c1ccccc1)c1ccc(Nc2nc(Nc3ccccc3)nc(Nc3ccccc3)n2)cc1 | > 100 µM | > 100 µM | > 100 µM | > 100 µM | > 100 µM | 47.5 µM | > 100 µM | > 100 µM | > 100 µM | > 100 µM | 89.1 µM | 57.9 µM | 1.62 µM | > 100 µM | > 100 µM | > 100 µM | 13.3 µM | 29 µM | 17.7 µM | 34.7 µM |
| CS(=O)(=O)N1CCN(Cc2cc3nc(-c4cccc5[nH]ncc45)nc(N4CCOCC4)c3s2)CC1 | 3.71 µM and > 5.34 µM | 1.44 µM and 1.11 µM | > 100 µM | > 100 µM | > 100 µM | 1.54 µM and 1.03 µM | 3.84 µM and 1.68 µM | > 100 µM | 0.244 µM | > 4.03 µM | 0.477 µM and 0.43 µM | 1.36 µM and 0.754 µM | 0.209 µM and 0.165 µM | 0.243 µM and 0.145 µM | 1.29 µM and 0.484 µM |  | 0.174 µM and 0.105 µM | 0.134 µM and 0.148 µM | 0.0766 µM and 0.083 µM | 2.62 µM and 0.504 µM |
